Consider one substance from paper PMC12867150, “A fungi-derived cyclic peptide enhances Th9-mediated antitumor immunity by targeting ZAP70 and SREBP1” (The Journal of Clinical Investigation, 2025).

“And” between values parts separate entries of the source, which are not always exact repeats. Equal values may be shown once.

For one test, the system named is Th9 cells. The test can be described thus: IL-9+ Th9 cells with oleic acid (S8I-J). The conditions noted are these: representative flow plot, Figure S8I; EpA 10 μM, OA 50 μM. The format is cell-based, mouse. An excerpt: LXR-α binding site ChREBP binding site USF1 binding site […] 2.1 1.8 2.1 […] 1.9 […] 20 20 0 […] + OA ✱✱✱✱ MIGR1 M Ctrl + OAEpA […] SREBP1 Ctrl SREBP1EpA ✱✱✱✱ ✱✱✱ 3 2 1 0 TNF-α MIGR1 SREBP1 […] SREBP1EpA Figure S8. EpA-associated modulation of lipid metabolism and its impact on Figure S8 Th9 cell function. (A-C) GSEA of RNA-seq data showing intracellular sterol transport (A), sterol transfer activity (B), and long-chain fatty acid transport (C) pathways in control and EpA-treated Th9 cells. […] (K and L) Flow-cytometric analysis of IL-9 expression in Th9 cells transduced with either control (MIGR1) or SREBP1- […]

Test [1] relates to Il9 and Tnf mRNA in Th9 cells. As to the kind of experiment: Quantitative PCR of Il9 and Tnf mRNA with fatostatin or SREBP1 overexpression (Figure 7B, 7H, 7I). The format is cell-based, mouse. How it is done:
For murine T cell transduction, MIGR1-based retroviral vector encoding Srebf1 was used. HEK293T cells were transfected with these constructs using Lipofectamine 3000 (Thermo Fisher Scientific) to produce viral particles. Supernatants were collected between 48 and 72 hours after transfection, filtered through a 0.45 μm membrane, and stored at –80°C. Naive murine CD4^+ T cells were activated with plate-bound anti-CD3 (2 μg/mL, clone 17A2, BioXCell) and soluble anti-CD28 (1 μg/mL, clone 37.51, BioXCell) stimulation in the presence of subset-specific polarizing cytokines and then transduced with viral supernatant supplemented with polybrene (10 μg/mL).
(§1) Total RNA was extracted from T cells using RNAex Pro Reagent (AG, catalog AG21102) following the manufacturer’s instructions. First-strand complementary DNA (cDNA) was synthesized using the Hifair III 1st Strand cDNA Synthesis SuperMix (YEASEN, catalog 11137ES10). Quantitative real-time PCR (qRT-PCR) was conducted on a QuantStudio 3 Real-Time PCR System (Thermo Fisher Scientific) using ChamQ Universal SYBR qPCR Master Mix (Vazyme, catalog Q711-02) and gene-specific primers (Tsingke Biotech).
(§2) For normalization, mouse samples were referenced to Gapdh or Actb, and human samples were normalized to GAPDH. Relative gene expression was calculated using the ΔΔCt method. Primer sequences are listed in Supplemental Table 5.

In test [2] the test system is Th9 signature genes (Irf4, Batf3, Batf, and Il9). As to the kind of experiment: Quantitative RT-PCR of Th9 signature genes (Figure 1J). In kind it is cell-based, mouse. How it is done: as §1, §2
A further test deals with SREBP1. The test can be described thus: CETSA of SREBP1 (Figure 6D-E). The format is binding. Particulars: result in words. How it is done:
Jurkat or 293T cells were washed twice with PBS and resuspended in PBS containing protease and phosphatase inhibitors. Cells were lysed by 3 cycles of liquid nitrogen snap-freezing and thawing at room temperature. […] One aliquot from each group was maintained at room temperature, and the others were heated for 3 minutes at 3 °C increments from 43°C to 64°C. Samples were then analyzed by SDS-PAGE and immunoblotting to assess protein thermal stability and compound binding.

The next test deals with human Th9 CAR T cells. As to the kind of experiment: Granzyme B+ CAR Th9 cells from spleens after transfer (S9H-I). The format is in vivo, mouse. The conditions noted are these: for Proportion of GzmB⁺ cells in spleen: Supplemental Figure 9I. The procedure: For xenograft models, M-NSG mice were intravenously inoculated with 1 × 10^6 Raji-CD19 tumor cells. On day 5 after inoculation, 2 × 10^6 CD19-CAR Th9 cells were administered intravenously to evaluate in vivo therapeutic efficacy. Tumor progression and immune cell infiltration were subsequently monitored according to experimental endpoints.
Details regarding staining panels (human and mouse), reagents (including clones and catalog numbers), acquisition settings, compensation/controls, and analysis procedures are provided in Supplemental Methods. […]
Th9 CAR-T c e l l s (n = 3). (H and I) Flow-cytometric analysis of granzyme B⁺ CAR-
Th9 cells isolated from spleens after adoptive transfer, showing representative plots
(H) and quantification (I) (n = 5 mice per group). Statistical analysis was performed
using one-way ANOVA with Tukey’s post hoc test (A and B), or two-tailed unpaired
Student’s t-test (E–G, and I). Repeated data are presented as mean ± SEM. *p < 0.05,
(also on this page, place not known: TP cells ANOV A 30IL-9+ cells (%) Fato Fato Fato Fato A SSC GzmB CtrlEpA MFIofMitoTracker (×102) GF NormalizedATPlevel CtrlEpA 4MFI of Mito Tracker (×105) CtrlEpA0 GzmB+ cells (%) CD4 10 20 IL-9+ cells (%) Day60 10 20 30 Ctrl)

The mark [3] stands for this setting: EpA-treated Th9, ΔΔCt, individual replicates, n = 3.

For the substance anteiso-C15 Leu7 surfactin [EpA], in the test on Th9 cells, the IL-9 gate number worked out at 77.2. The “Il9 mRNA expression (quantitative PCR)” value in test [1] (Figure 7B, EpA (10 µM) + Fatostatin (10 µM), individual replicates, (n = 3)) is 42.4796 and 40.5146 and 54.9024. Also, the “Il9 mRNA expression in Th9 cells” value in test [1] (Figure 7H, MigR1 vector, individual replicates, (n = 3)) was 17.2536 and 18.9128 and 17.6178; in test [1] (Figure 7H, overexpressing SREBP1, individual replicates, (n = 3)) it was 6.0458 and 5.242 and 5.497; in test [1] (Figure 7I, MigR1 vector, individual replicates, (n = 3)), 2.765 and 2.875 and 2.532; in test [1] (Figure 7I, overexpressing SREBP1, individual replicates, (n = 3)), 1.999 and 1.591 and 1.423. The “EpA-induced Il9 and Tnf mRNA increase upon SREBP1 overexpression” value in test [1] (result in words) was “markedly suppressed”. Further, the “Batf3 relative mRNA expression” value in test [2] (setting [3]) is 1.532 and 2.109 and 2.3014. Moreover, the “Batf relative mRNA expression” value in test [2] (setting [3]) was 1.713 and 1.736 and 1.548. The “Il9 relative mRNA expression” value in test [2] (setting [3]) is 23.4757 and 53.1262 and 48.3738. Further, in test [2] (setting [3]), the “Irf4 relative mRNA expression” value was 1.345 and 1.289 and 1.126. Also, the “Th9-associated transcription factors and effector cytokines” value in test [2] (result in words) is listed as “significantly upregulated”. In addition, the “thermal stability of SREBP1” value in the test on SREBP1 is reported as “enhanced thermal stability of SREBP1”. In the test with human Th9 CAR T cells (result in words), the “granzyme B levels in CAR T cells after transfer” value was “elevated”. In addition, the “Proportion of GzmB⁺ cells in spleen” value in the test with human Th9 CAR T cells (replicate 1) is listed as 22.5; with human Th9 CAR T cells (replicate 2), 28.9; in the test with human Th9 CAR T cells (replicate 3), 40.8; in the test on human Th9 CAR T cells (replicate 4) it was 84.4; in the test on human Th9 CAR T cells (replicate 5) it was 47.4. The “granzyme B+ CAR Th9 gate number” value with human Th9 CAR T cells (spleens after transfer, representative flow plot, Figure S9H) turned out to be 47.4.
